Test results as given in patent publication US20240400577A1, “MODULATORS OF PROTEIN KINASES” (VIBLIOME THERAPEUTICS, LLC, priority 2021, published 2024).

Legend:
Experiment in all cases: Kinase panel enzymatic inhibition assay (Nanosyn)
Assay type in all cases: biochemical
Conditions in all cases: compound 5 μM; ATP at Km; 30-minute pre-incubation
PDGFRa = molecular target: T1, PDGFRa (Homo sapiens, UniProt P16234)
T1 construct: Nanosyn (contract laboratory that ran the panel)
In short: (§1)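 Inhibition is expressed as percent at 5 μM or as IC50, with ATP set at the Km of each kinase and a 30-minute compound pre-incubation. Detection used an accepted enzymatic format such as Caliper mobility shift.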

Abl1 = molecular target: T2, Abl1 (Homo sapiens, UniProt P00519)
T2 construct: purchased Nanosyn (contract screening)
In short: as §1

LCK = molecular target: T3, LCK (Homo sapiens, UniProt P06239)
T3 construct: purchased Nanosyn (contract screening)
T3 sequence (P06239 whole entry): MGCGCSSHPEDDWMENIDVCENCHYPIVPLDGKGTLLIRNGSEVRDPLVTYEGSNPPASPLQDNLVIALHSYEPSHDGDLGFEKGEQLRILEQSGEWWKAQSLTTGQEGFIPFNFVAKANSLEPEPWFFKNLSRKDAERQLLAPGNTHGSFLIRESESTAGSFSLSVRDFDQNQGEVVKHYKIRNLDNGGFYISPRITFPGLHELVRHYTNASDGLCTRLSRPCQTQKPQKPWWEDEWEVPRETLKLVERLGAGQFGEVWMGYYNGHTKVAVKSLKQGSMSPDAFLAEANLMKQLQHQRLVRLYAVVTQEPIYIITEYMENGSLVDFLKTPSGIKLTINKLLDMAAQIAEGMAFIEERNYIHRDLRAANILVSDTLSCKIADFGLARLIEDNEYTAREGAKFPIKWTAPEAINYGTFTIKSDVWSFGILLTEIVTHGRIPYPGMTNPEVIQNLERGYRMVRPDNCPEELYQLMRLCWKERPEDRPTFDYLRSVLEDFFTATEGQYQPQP
In short: as §1

HGK = molecular target: T4, HGK (Homo sapiens, UniProt O95819)
T4 construct: purchased Nanosyn (contract screening)
In short: as §1

TAOK2 = molecular target: T5, TAOK2 (Homo sapiens, UniProt Q9UL54)
T5 construct: Nanosyn (contract laboratory that ran the panel)
T5 sequence (Q9UL54 1-1235): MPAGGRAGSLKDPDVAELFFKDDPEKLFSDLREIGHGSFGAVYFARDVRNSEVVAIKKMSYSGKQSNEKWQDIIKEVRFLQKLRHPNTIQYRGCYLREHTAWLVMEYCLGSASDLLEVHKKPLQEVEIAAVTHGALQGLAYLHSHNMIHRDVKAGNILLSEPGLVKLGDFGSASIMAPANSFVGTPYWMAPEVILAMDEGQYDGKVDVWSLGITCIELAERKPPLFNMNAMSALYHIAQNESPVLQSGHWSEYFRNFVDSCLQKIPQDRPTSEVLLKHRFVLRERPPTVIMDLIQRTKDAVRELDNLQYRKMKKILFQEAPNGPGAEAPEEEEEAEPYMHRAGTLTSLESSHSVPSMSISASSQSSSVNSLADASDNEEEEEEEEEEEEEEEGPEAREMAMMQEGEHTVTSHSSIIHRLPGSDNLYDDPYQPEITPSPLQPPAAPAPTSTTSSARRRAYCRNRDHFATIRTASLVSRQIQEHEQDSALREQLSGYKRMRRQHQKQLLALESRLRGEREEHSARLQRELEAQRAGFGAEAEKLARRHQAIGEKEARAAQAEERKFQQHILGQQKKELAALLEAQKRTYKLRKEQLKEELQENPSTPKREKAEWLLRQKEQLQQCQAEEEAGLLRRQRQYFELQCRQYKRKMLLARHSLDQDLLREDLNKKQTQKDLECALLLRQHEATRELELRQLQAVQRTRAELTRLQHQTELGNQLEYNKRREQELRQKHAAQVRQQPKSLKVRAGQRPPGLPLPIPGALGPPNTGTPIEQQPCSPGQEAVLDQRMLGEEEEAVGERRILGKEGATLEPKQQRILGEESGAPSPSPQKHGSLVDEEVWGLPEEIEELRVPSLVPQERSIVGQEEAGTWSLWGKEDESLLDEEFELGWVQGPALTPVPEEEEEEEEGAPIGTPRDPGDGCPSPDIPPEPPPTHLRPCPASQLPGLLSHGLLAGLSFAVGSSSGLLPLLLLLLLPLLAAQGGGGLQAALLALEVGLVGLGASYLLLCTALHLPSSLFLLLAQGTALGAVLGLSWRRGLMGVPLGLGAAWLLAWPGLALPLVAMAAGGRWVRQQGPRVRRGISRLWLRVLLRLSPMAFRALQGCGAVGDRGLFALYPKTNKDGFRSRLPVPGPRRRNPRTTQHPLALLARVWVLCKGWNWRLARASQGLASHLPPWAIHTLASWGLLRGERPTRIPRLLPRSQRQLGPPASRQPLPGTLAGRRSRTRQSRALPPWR
In short: as §1

p38a = molecular target: T6, p38a (Homo sapiens, UniProt Q16539)
T6 construct: Nanosyn (contract laboratory that ran the panel)
T6 sequence (Q16539 whole entry): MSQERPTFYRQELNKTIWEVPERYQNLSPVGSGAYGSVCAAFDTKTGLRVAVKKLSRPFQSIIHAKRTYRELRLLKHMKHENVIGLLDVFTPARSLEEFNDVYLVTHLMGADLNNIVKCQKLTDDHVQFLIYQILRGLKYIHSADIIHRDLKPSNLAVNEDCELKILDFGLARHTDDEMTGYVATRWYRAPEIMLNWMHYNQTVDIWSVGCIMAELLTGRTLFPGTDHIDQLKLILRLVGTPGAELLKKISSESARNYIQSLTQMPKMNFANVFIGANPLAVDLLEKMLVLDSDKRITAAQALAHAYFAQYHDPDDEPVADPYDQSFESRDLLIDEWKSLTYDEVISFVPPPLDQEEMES
In short: as §1

BRAF = molecular target: T7, BRAF (Homo sapiens, UniProt P15056)
T7 construct: purchased Nanosyn (contract screening)
T7 sequence (P15056 whole entry): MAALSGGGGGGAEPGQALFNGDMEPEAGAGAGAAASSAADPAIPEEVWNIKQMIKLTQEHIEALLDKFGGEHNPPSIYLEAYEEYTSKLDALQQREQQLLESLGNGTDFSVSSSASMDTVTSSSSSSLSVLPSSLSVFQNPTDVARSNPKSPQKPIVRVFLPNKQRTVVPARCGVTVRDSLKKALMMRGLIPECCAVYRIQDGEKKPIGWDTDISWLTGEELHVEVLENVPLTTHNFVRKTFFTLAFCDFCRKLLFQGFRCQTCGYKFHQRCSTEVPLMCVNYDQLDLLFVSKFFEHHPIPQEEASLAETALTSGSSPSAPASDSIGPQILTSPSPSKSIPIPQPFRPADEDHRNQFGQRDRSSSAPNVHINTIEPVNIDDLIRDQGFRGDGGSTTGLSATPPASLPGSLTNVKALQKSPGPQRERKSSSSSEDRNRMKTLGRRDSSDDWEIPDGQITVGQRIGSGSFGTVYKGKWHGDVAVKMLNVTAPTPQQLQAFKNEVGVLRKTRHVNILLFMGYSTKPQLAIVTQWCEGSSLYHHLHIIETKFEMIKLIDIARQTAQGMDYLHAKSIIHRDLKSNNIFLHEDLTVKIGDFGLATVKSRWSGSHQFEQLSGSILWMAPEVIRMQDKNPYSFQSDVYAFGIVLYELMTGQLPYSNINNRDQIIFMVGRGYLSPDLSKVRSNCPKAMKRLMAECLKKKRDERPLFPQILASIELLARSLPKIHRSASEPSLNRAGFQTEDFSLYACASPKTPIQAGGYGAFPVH
In short: as §1

COT1 = molecular target: T8, COT1 (Homo sapiens, UniProt P41279)
T8 construct: purchased Nanosyn (contract screening)
T8 sequence (P41279 whole entry): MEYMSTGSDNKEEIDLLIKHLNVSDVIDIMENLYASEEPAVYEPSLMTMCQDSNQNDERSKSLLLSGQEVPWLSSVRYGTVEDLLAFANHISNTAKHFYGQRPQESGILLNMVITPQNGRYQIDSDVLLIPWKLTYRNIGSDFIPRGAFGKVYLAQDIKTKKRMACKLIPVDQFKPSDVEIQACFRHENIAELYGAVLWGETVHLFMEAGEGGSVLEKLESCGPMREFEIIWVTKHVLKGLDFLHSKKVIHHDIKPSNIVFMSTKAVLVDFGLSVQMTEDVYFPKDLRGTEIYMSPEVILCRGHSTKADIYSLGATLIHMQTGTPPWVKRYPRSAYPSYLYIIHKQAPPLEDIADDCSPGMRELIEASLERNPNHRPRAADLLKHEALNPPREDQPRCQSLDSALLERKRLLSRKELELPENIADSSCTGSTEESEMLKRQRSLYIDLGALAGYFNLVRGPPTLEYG
In short: as §1

SPHK2 = molecular target: T9, SPHK2 (Homo sapiens, UniProt Q9NRA0)
T9 construct: Nanosyn (contract laboratory that ran the panel)
T9 sequence (Q9NRA0 1-654): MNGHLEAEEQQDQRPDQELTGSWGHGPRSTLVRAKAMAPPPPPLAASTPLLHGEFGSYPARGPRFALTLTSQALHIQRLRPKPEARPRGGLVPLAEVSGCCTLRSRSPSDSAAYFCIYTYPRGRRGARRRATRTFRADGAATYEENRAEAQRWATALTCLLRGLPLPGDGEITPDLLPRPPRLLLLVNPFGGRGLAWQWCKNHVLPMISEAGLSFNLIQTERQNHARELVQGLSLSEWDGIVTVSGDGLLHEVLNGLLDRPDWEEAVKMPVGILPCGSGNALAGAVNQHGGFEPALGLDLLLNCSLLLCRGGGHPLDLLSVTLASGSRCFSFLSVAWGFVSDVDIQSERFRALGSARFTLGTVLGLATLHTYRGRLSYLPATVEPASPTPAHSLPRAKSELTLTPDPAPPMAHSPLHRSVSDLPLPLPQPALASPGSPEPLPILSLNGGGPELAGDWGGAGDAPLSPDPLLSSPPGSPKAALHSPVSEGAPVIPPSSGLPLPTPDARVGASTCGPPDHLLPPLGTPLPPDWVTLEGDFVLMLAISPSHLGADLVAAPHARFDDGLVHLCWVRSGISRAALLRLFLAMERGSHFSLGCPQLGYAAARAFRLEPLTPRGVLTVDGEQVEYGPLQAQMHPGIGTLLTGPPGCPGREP
In short: as §1

FGR = molecular target: T10, FGR (Homo sapiens, UniProt P09769)
T10 construct: purchased Nanosyn (contract screening)
T10 sequence (P09769 whole entry): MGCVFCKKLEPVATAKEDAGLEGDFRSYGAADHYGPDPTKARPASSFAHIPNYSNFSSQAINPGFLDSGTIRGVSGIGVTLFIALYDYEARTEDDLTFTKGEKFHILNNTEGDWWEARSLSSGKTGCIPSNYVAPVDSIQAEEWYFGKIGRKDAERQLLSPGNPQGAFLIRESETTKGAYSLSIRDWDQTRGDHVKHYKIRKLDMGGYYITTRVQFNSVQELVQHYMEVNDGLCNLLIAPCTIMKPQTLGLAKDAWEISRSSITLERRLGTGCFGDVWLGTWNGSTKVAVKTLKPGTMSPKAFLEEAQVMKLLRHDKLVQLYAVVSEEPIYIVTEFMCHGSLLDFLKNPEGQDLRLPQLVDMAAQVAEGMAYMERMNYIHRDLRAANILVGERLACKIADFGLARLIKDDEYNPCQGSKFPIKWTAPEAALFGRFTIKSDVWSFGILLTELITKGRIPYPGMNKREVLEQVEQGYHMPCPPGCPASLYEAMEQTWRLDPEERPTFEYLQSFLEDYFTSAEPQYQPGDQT
In short: as §1

FYN = molecular target: T11, FYN (Homo sapiens, UniProt P06241)
T11 construct: purchased Nanosyn (contract screening)
T11 sequence (P06241 whole entry): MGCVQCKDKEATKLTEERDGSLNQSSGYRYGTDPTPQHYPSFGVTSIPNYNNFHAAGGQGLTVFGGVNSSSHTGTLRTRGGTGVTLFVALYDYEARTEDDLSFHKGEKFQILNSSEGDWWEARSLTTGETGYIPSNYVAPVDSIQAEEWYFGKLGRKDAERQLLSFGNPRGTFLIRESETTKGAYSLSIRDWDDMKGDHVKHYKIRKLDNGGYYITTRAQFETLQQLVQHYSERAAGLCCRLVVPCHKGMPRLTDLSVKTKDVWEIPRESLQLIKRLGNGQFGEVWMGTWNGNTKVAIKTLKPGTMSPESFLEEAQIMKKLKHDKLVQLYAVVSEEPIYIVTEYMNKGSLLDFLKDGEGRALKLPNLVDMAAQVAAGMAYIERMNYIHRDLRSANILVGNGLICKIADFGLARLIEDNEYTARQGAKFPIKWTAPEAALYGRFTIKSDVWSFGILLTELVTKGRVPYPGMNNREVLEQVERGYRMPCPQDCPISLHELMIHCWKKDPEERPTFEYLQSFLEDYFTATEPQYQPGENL
In short: as §1

CLK4 = molecular target: T12, CLK4 (Homo sapiens, UniProt Q9HAZ1)
T12 construct: purchased Nanosyn (contract screening)
T12 sequence (Q9HAZ1 whole entry): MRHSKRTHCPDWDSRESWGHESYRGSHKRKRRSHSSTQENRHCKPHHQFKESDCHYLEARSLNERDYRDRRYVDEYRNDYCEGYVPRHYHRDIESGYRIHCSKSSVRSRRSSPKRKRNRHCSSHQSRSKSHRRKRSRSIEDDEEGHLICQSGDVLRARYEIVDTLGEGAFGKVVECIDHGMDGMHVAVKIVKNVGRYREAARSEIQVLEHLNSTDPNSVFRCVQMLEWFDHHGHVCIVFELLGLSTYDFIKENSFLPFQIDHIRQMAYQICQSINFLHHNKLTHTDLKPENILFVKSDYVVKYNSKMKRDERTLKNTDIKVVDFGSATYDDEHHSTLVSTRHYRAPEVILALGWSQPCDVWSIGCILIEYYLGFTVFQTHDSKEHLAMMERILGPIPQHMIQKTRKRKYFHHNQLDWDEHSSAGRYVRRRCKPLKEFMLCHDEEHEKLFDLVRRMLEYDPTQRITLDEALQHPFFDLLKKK
In short: as §1

T1 sequence (P16234 24-1089): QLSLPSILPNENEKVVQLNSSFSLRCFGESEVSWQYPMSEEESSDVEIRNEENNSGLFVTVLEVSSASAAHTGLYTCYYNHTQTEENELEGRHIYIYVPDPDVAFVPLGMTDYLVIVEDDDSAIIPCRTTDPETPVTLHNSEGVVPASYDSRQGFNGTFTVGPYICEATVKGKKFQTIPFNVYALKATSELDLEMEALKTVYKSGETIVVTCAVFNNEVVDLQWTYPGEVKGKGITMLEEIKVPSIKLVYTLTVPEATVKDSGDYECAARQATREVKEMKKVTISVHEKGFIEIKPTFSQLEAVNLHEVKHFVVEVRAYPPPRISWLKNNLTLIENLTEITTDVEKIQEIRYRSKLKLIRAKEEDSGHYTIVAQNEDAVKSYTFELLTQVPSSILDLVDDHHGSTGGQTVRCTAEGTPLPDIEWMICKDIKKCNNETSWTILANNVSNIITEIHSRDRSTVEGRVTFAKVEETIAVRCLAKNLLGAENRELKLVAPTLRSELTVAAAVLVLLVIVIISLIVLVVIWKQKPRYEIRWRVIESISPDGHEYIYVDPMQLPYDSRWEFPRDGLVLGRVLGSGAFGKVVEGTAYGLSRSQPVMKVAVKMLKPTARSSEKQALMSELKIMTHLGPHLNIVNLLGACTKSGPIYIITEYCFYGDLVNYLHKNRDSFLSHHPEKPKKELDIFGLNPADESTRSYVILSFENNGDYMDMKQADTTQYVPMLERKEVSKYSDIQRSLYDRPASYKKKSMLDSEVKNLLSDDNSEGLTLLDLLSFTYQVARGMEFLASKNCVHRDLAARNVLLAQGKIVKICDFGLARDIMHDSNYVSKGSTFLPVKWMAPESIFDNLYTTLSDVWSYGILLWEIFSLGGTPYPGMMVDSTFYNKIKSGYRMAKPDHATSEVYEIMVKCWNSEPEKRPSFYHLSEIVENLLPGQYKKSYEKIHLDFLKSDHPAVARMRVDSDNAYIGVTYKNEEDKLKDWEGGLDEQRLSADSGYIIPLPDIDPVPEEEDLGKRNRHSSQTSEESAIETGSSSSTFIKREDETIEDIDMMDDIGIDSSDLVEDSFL

| SMILES | inhibition at 5 µM (PDGFRa) | inhibition at 5 µM (Abl1) | inhibition at 5 µM (LCK) | inhibition at 5 µM (HGK) | inhibition at 5 µM (TAOK2) | inhibition at 5 µM (p38a) | inhibition at 5 µM (BRAF) | inhibition at 5 µM (COT1) | inhibition at 5 µM (SPHK2) | inhibition at 5 µM (FGR) | inhibition at 5 µM (FYN) | inhibition at 5 µM (CLK4) |
| --- | --- | --- | --- | --- | --- | --- | --- | --- | --- | --- | --- | --- |
| Cc1ccc(NC(=O)c2cc([S+](C)[O-])n(-c3ccc(F)cc3)n2)cc1-c1cc(N2CCOCC2)c(=O)n(C)c1 (stereo not drawn) [Ex11, 1-(4-fluorophenyl)-N-(4-methyl-3-(1-methyl-5-morpholino-6-oxo-1,6-dihydropyridin-3-yl)phenyl)-5-(methylsulfinyl)-1H-pyrazole-3-carboxamide] | < 79% | < 79% | < 79% | < 79% | < 79% | ≥ 95% | ≥ 95% | < 79% | < 79% | < 79% | < 79% | < 79% |
| Cc1ccc(NC(=O)c2cc(S(C)(=O)=O)n(-c3ccc(F)cc3)n2)cc1-c1cc(N2CCOCC2)c(=O)n(C)c1 [Ex12, 1-(4-fluorophenyl)-N-(4-methyl-3-(1-methyl-5-morpholino-6-oxo-1,6-dihydropyridin-3-yl)phenyl)-5-(methylsulfonyl)-1H-pyrazole-3-carboxamide] | < 79% | < 79% | < 79% | < 79% | 80 to 89% | < 79% | ≥ 95% | < 79% | < 79% | < 79% | < 79% | < 79% |
| Cc1ccc(NC(=O)c2cc(S(C)(=O)=O)n(-c3ccc(F)cc3)n2)cc1Nc1nccc(-c2cccnc2N)n1 [Ex13, N-(3-((4-(2-aminopyridin-3-yl)pyrimidin-2-yl)amino)-4-methylphenyl)-1-(4-fluorophenyl)-5-(methylsulfonyl)-1H-pyrazole-3-carboxamide] | ≥ 95% | ≥ 95% | 90 to 94% | < 79% | < 79% | < 79% | ≥ 95% | < 79% | 80 to 89% | < 79% | < 79% | < 79% |
| Cc1ccc(NC(=O)c2cc(S(C)(=O)=O)n(-c3ccc(F)cc3)n2)cc1C#Cc1cnc2cccnn12 [Ex14, 1-(4-fluorophenyl)-N-(3-(imidazo[1,2-b]pyridazin-3-ylethynyl)-4-methylphenyl)-5-(methylsulfonyl)-1H-pyrazole-3-carboxamide] | < 79% | < 79% | ≥ 95% | < 79% | < 79% | < 79% | ≥ 95% | < 79% | < 79% | 80 to 89% | 90 to 94% | < 79% |
| CCOC(=O)Nc1cn2nc(Nc3cc(NC(=O)c4cc(S(C)(=O)=O)n(-c5ccc(F)cc5)n4)ccc3C)ccc2n1 [Ex15, ethyl (6-((5-(1-(4-fluorophenyl)-5-(methylsulfonyl)-1H-pyrazole-3-carboxamido)-2-methylphenyl)amino)imidazo[1,2-b]pyridazin-2-yl)carbamate] | ≥ 95% | ≥ 95% | ≥ 95% | < 79% | < 79% | ≥ 95% | ≥ 95% | < 79% | < 79% | 80 to 89% | ≥ 95% | < 79% |
| CNC(=O)c1cc(Oc2ccc(NC(=O)c3cc(S(C)(=O)=O)n(-c4ccc(F)cc4)n3)c(F)c2)ccn1 [Ex17, 4-(3-fluoro-4-(1-(4-fluorophenyl)-5-(methylsulfonyl)-1H-pyrazole-3-carboxamido)phenoxy)-N-methylpicolinamide] | < 79% | < 79% | < 79% | < 79% | < 79% | < 79% | < 79% | < 79% | < 79% | < 79% | < 79% | < 79% |
| CCOC(=O)Nc1cn2nc(Nc3cc(NC(=O)c4cc([S+](C)[O-])n(-c5ccc(F)cc5)n4)ccc3C)ccc2n1 (stereo not drawn) [Ex18, ethyl (6-((5-(1-(4-fluorophenyl)-5-(methylsulfinyl)-1H-pyrazole-3-carboxamido)-2-methylphenyl)amino)imidazo[1,2-b]pyridazin-2-yl)carbamate] | 90 to 94% | ≥ 95% | ≥ 95% | < 79% | < 79% | ≥ 95% | 90 to 94% | < 79% | 80 to 89% | 80 to 89% | ≥ 95% | < 79% |
